Data taken from PubChem BioAssay AID1259407 (Chemical Carcinogenesis Research Information System (CCRIS), 2018).
Active and inactive are the calls of the source. No rule for the calls is given here.

System: CCRIS mutagenicity, Ames/micronucleus/aberration tests
Test: CCRIS mutagenicity studies
Conditions: Test System: AMES SALMONELLA TYPHIMURIUM
[1] = Strain/Indicator: TA97, Metabolic Activation: NONE, Method: PREINCUBATION
[2] = Strain/Indicator: TA98, Metabolic Activation: NONE, Method: PREINCUBATION
[3] = Strain/Indicator: TA100, Metabolic Activation: NONE, Method: PREINCUBATION
[4] = Strain/Indicator: TA1535, Metabolic Activation: NONE, Method: PREINCUBATION
[5] = Strain/Indicator: TA98, Metabolic Activation: HAMSTER, LIVER, S-9, AROCLOR 1254 (10%), Method: PREINCUBATION
[6] = Strain/Indicator: TA98, Metabolic Activation: RAT, LIVER, S-9, AROCLOR 1254 (10%), Method: PREINCUBATION
[7] = Strain/Indicator: TA100, Metabolic Activation: HAMSTER, LIVER, S-9, AROCLOR 1254 (10%), Method: PREINCUBATION
[8] = Strain/Indicator: TA100, Metabolic Activation: RAT, LIVER, S-9, AROCLOR 1254 (10%), Method: PREINCUBATION
[9] = Strain/Indicator: TA1535, Metabolic Activation: HAMSTER, LIVER, S-9, AROCLOR 1254 (10%), Method: PREINCUBATION
[10] = Strain/Indicator: TA1535, Metabolic Activation: RAT, LIVER, S-9, AROCLOR 1254 (10%), Method: PREINCUBATION
[11] = Strain/Indicator: TA100, Metabolic Activation: RAT, LIVER, S-9, AROCLOR 1254, Method: STANDARD PLATE
[12] = Strain/Indicator: TA98, Metabolic Activation: NONE, Method: STANDARD PLATE
[13] = Strain/Indicator: TA98, Metabolic Activation: RAT, LIVER, S-9, AROCLOR 1254, Method: STANDARD PLATE
[14] = Strain/Indicator: TA100, Metabolic Activation: NONE, Method: STANDARD PLATE

Compound | mutagenic call [2] | mutagenic call [3] | mutagenic call [4] | mutagenic call [7] | mutagenic call [8] | mutagenic call [9] | mutagenic call [10] | mutagenic call [11] | mutagenic call [12] | mutagenic call [13] | mutagenic call [14] | also measured
CCCCCCC(C)OC(=O)C[S][Sn]([CH2]CCC)([S]CC(=O)OC(C)CCCCCC)[S]CC(=O)OC(C)CCCCCC (configuration not stated) | inactive; negative | inactive; negative | inactive; negative | – | – | – | – | – | – | – | – | mutagenic call (Strain/Indicator: TA97, Metabolic Activation: HAMSTER, LIVER, S-9, AROCLOR 1254 (10 OR 30%), Method: PREINCUBATION): inactive; negative; mutagenic call [1]: inactive; negative; mutagenic call (Strain/Indicator: TA97, Metabolic Activation: RAT, LIVER, S-9, AROCLOR 1254 (10 OR 30%), Method: PREINCUBATION): inactive; negative; mutagenic call (Strain/Indicator: TA98, Metabolic Activation: HAMSTER, LIVER, S-9, AROCLOR 1254 (10 OR 30%), Method: PREINCUBATION): inactive; negative; mutagenic call (Strain/Indicator: TA98, Metabolic Activation: RAT, LIVER, S-9, AROCLOR 1254 (10 OR 30%), Method: PREINCUBATION): inactive; negative; mutagenic call (Strain/Indicator: TA100, Metabolic Activation: HAMSTER, LIVER, S-9, AROCLOR 1254 (10 OR 30%), Method: PREINCUBATION): inactive; negative; mutagenic call (Strain/Indicator: TA100, Metabolic Activation: RAT, LIVER, S-9, AROCLOR 1254 (10 OR 30%), Method: PREINCUBATION): inactive; negative; mutagenic call (Strain/Indicator: TA1535, Metabolic Activation: HAMSTER, LIVER, S-9, AROCLOR 1254 (10 OR 30%), Method: PREINCUBATION): inactive; negative; mutagenic call (Strain/Indicator: TA1535, Metabolic Activation: RAT, LIVER, S-9, AROCLOR 1254 (10 OR 30%), Method: PREINCUBATION): inactive; negative
Nc1ccc2ccccc2c1N=Nc1ccc([N+](=O)[O-])cc1 | active; positive | inactive; negative | inactive; negative | active; positive | active; positive | inactive; negative | inactive; negative | – | – | – | – | mutagenic call (Strain/Indicator: TA97, Metabolic Activation: HAMSTER, LIVER, S-9, AROCLOR 1254 (10%), Method: PREINCUBATION): active; positive; mutagenic call [1]: active; positive; mutagenic call (Strain/Indicator: TA97, Metabolic Activation: RAT, LIVER, S-9, AROCLOR 1254 (10%), Method: PREINCUBATION): active; positive; mutagenic call [5]: active; positive; mutagenic call [6]: active; positive
Nc1ccn([C@@H]2O[C@H](CO)[C@@H](O)[C@@H]2O)c(=O)n1 | inactive; negative | inactive; negative | inactive; negative | inactive; negative | inactive; negative | inactive; negative | inactive; negative | – | – | – | – | mutagenic call [5]: inactive; negative; mutagenic call [6]: inactive; negative; mutagenic call (Strain/Indicator: TA1537, Metabolic Activation: HAMSTER, LIVER, S-9, AROCLOR 1254 (10%), Method: PREINCUBATION): inactive; negative; mutagenic call (Strain/Indicator: TA1537, Metabolic Activation: NONE, Method: PREINCUBATION): inactive; negative; mutagenic call (Strain/Indicator: TA1537, Metabolic Activation: RAT, LIVER, S-9, AROCLOR 1254 (10%), Method: PREINCUBATION): inactive; negative
CC(C)NCC(O)c1ccc2ccccc2c1 (configuration not stated) | – | – | – | – | – | – | – | – | – | – | – | mutagenic call (Strain/Indicator: TA98, Metabolic Activation: NONE): inactive; negative; mutagenic call (Strain/Indicator: TA98, Metabolic Activation: RAT, LIVER, S-9, AROCLOR 1254): inactive; negative; mutagenic call (Strain/Indicator: TA100, Metabolic Activation: NONE): inactive; negative; mutagenic call (Strain/Indicator: TA100, Metabolic Activation: RAT, LIVER, S-9, AROCLOR 1254): inactive; negative; mutagenic call (Strain/Indicator: TA1535, Metabolic Activation: NONE): inactive; negative; mutagenic call (Strain/Indicator: TA1535, Metabolic Activation: RAT, LIVER, S-9, AROCLOR 1254): inactive; negative; mutagenic call (Strain/Indicator: TA1537, Metabolic Activation: NONE): inactive; negative; mutagenic call (Strain/Indicator: TA1537, Metabolic Activation: RAT, LIVER, S-9, AROCLOR 1254): inactive; negative
BrCC1CO1 (configuration not stated) | – | active; positive | active; positive | active; positive | active; positive | active; positive | active; positive | – | – | – | – | –
O=C1c2ccccc2-c2c1ccc1ccccc21 | – | – | – | – | – | – | – | active; positive | – | – | – | –
Nc1ccc(CCc2ccc(N)cc2)cc1 | – | – | – | – | – | – | – | active; positive | inactive; negative | active; positive | inactive; negative | –
Cc1cccc(NS(=O)(=O)c2cccc3cccnc23)c1 | – | – | – | – | – | – | – | inactive; negative | inactive; negative | inactive; negative | inactive; negative | mutagenic call (Strain/Indicator: TA1535, Metabolic Activation: NONE, Method: STANDARD PLATE): inactive; negative; mutagenic call (Strain/Indicator: TA1535, Metabolic Activation: RAT, LIVER, S-9, AROCLOR 1254, Method: STANDARD PLATE): inactive; negative; mutagenic call (Strain/Indicator: TA1537, Metabolic Activation: NONE, Method: STANDARD PLATE): inactive; negative; mutagenic call (Strain/Indicator: TA1537, Metabolic Activation: RAT, LIVER, S-9, AROCLOR 1254, Method: STANDARD PLATE): inactive; negative
Clc1ccc2cc3ccccc3cc2c1 | – | – | – | – | – | – | – | inactive; negative | inactive; negative | active; positive | inactive; negative | –
